Laboratory results from patent publication US20100168165A1, “METHOD OF TREATING DISEASE INVOLVING MYELIN AND/OR AXONAL LOSS” (The United States of America, as represented by the …, priority 2007, published 2010).
Values joined by “and” are separate entries in the source; they are usually repeats but may differ in a detail not shown here. Equal values may be shown once.

Legend:
[1] = test system: actively induced chronic progressive EAE; experiment: Actively induced chronic progressive EAE (MOG35-55 immunization), Tempol food from 14 days before immunization; type: in vivo, SJL mice
Description: (§1) SJL mice are placed on Tempol-containing food two weeks prior to the initiation of experimental autoimmune encephalomyelitis (EAE) either by active immunization with myelin antigens or the transfer of activated encephalitogenic T cells. Animals receive bacon-flavored control food and Tempol-containing food ad libitum (Bio-Serv, Frenchtown, N.J.). The composition of the control food and Tempol-containing food is identical with exception to the addition of Tempol at a concentration of 10 mg/gram of food (Mitchell et al., Free Radic. Biol. Med., 34: 93-102 (2003)). Bacon flavored food is used to mask the taste of Tempol. All experiments with animals are carried out according to protocols approved by and on file with the National Institute of Neurological Disorders and Stoke (NINDS) Animal Care and Use Committee (ACUC).
(§2) For the EAE induction, all animals are female, 8-10 weeks of age at time of myelin protein immunization. Animals are immunized for active EAE induction with 200 μg of MOG35-55 peptide in 4 mg/ml H37Ra Mycobacterium/IFA with 200 ng pertussis toxin delivered intraperitoneally (IP) on days 0 and 2. For passive EAE induction, SJL animals are immunized with 75 μg of PLP139-151 peptide in 1 mg/ml H37Ra Mycobacterium/IFA (Difco, Detroit, Mich.). Ten days later, axillary and inguinal lymph nodes are removed and placed into culture with 5 μg/ml of PLP139-151 peptide. After 3 days, activated T cells are counted and 2 million blasted T cells are transferred IP to each SJL recipient mouse.
Mice are placed on control- or Tempol-containing food 14 days (T-14) prior to immunization with MOG peptide for EAE induction (day 0=date of immunization). Mice are blindly evaluated for onset of disease and clinical scores are assigned following examination as follows: 0=no clinical signs; 1=flaccid tail; 2=paresis of one or both hind legs; 3=paralysis of one or both hind legs; 4=quadriparesis or quadriparalysis; 5=moribund. The cumulative score represents the mean of the summation of single scores recorded in each mouse over days 0 (day of immunization) to day 30 post disease induction. In this study, mice that are fed Tempol generate myelin antigen-specific T cells which are unable to cause paralytic disease in immunized mice.

[2] = test system: passively induced chronic progressive EAE; experiment: Passively induced chronic progressive EAE (transfer of PLP139-151-activated encephalitogenic T cells); type: in vivo, SJL mice
Description: as §1, §2
Mice are placed on control- or Tempol-containing food 14 days (T-14) prior to receipt of encephalitogenic T cells (day 0=date of T cell transfer). Mice are blindly evaluated for onset of disease and clinical scores were assigned following examination as follows: 0=no clinical signs; 1=flaccid tail; 2=paresis of one or both hind legs; 3=paralysis of one or both hind legs; 4=quadriparesis or quadriparalysis; 5=moribund. The cumulative score represents the mean of the summation of single scores recorded in each mouse over days 0 (day of T cell transfer) to day 48 post disease induction. PLP-specific T cells are capable of causing severe paralytic disease in the brain and spinal cord of control fed mice, yet Tempol-fed mice are protected showing decreased incidence of disease as well as reduced severity.
SJL animals are induced for disease by the passive transfer of encephalitogenic T cells as described in Example 1. Animals are placed on either Tempol or control feed at either (i) 2 weeks prior to transfer, (ii) at the time of transfer, or (iii) at the onset of disease.

MOG-induced active EAE = experiment: MOG-induced active EAE, switched to Tempol feed after onset of clinical signs; type: in vivo, mice; conditions: feed switched once 60% of animals show at least grade 1; FIG. 4
Description: as §2

neurofilament H = experiment: Spinal cord neurofilament H in passive EAE animals; type: in vivo, SJL mice; set-up: cumulative disease score / peak disease score: scale not given here
Description: SJL animals are induced for disease by the passive transfer of encephalitogenic T cells as described in Example 1. Animals are placed on either Tempol or control feed. The spinal cords of the animals are analyzed 90 days post transfer.
Neurofilament staining is representative of the presence of axons. During autoimmune or demyelinating processes, the loss of neurofilament H has been associated with axonal loss.

[3] = test system: edema associated with inflammation and tissue damage; experiment: Spinal cord T2 relaxation times (edema) in passive EAE; type: in vivo, SJL mice
Description: SJL animals are induced for disease by the passive transfer of encephalitogenic T cells as described in Example 1. Animals are placed on either Tempol or control feed. In a spinal cord histogram, T2 relaxation times typically increase due to inflammation and edema during CNS autoimmunity/disease during EAE. […] In the control-fed animals, the spinal cord T2 relaxation times shifted to higher values due to edema and inflammation.
The average T2 relaxation times are measured for SJL passively-induced EAE animals on Tempol 2 weeks prior to T cell transfer. Five scans are collected per animal, which are pooled from: 2 control animals (10 total), 4 control-fed EAE animals (20 total), and 4 Tempol-fed EAE animals (20 total).

inflammatory infiltrates = experiment: Inflammatory infiltrate scoring of spinal cords at peak disease, passive EAE; type: in vivo, mice; conditions: 5 animals per group, 11 cord levels, scale 1-5; FIG. 8
Description: Animals induced passively for EAE with PLP-specific T cells are examined at peak disease for assessment of inflammatory infiltrates. The spinal cords from 5 animals per group (control-fed and Tempol-fed) are examined at 11 levels spanning the entire cord and assessed according to the following scale and an average inflammatory score is calculated per animal. Degree of inflammation: 1=1-2 mild infiltrates, little to no infiltration; 2=3+ infiltrates, +/− infiltration; 3=1-2 moderate infiltrates, 1-2 mild little/mild infiltrates; 4=3+ moderate infiltrates, or 1 severe/broad with or without mild infiltrates, extensive infiltration to parenchyma present; 5=2+ severe/broad parenchyma infiltrative, with or without additional mild/moderate associated infiltrates to parenchyma.

leukocytic infiltration = experiment: Leukocyte count by flow cytometry in actively induced EAE; type: in vivo, C57BL/6J mice
Text: Animals are placed on either Tempol or control feed, and the number of leukocytes are counted via flow cytometry.

myelin-specific T cells = experiment: Spleen recall proliferation to myelin antigen 20 days after immunization; type: in vivo; conditions: three animals per group, pooled; FIG. 9
Description: Animals on control or Tempol feed are immunized with a myelin antigen, and the spleens are tested 20 days later for recall to antigen. Three animals per group are tested and the results are pooled (FIG. 9).

[4] = clinical score 0-5, Tempol food from T-14, n = 10
[5] = individual animals, passive EAE

CC1(C)CC(O)CC(C)(C)N1[O] [Tempol, 4-hydroxy-2,2,6,6-tetramethylpiperidine-1-oxyl] was tested, and the “Effect on incidence and severity of EAE” value ([1]; Table 1 and FIG. 1) was “reduces the incidence and severity”, the Incidence of disease ([1]; Tempol 10 mg/gram of food ad libitum from 14 days prior to MOG immunization, n = 10) was “.30” and the “Average peak disease severity” value [1, 4] was 0.83. The “Average cumulative disease score” value ([1]; clinical score 0-5 summed over day 0 to day 30, Tempol food from T-14, n = 10) was 2.05, the “Effect on incidence and severity of EAE” value ([2]; Table 2 and FIG. 2) was “reduces the incidence and severity” and the Incidence of disease ([2]; Tempol 10 mg/gram of food from 14 days prior to T cell transfer, n = 10) was “.70”. For the same compound, the “Average peak disease severity” value [2, 4] was 2.81, the “Average cumulative disease score” value ([2]; clinical score 0-5 summed over day 0 to day 48, Tempol food from T-14, n = 10) was 33.9 and the “Clinical sign at peak disease” value ([2]; control animals: complete hind limb paralysis with forelimb weakness) was “hind limb paresis”. The “Severity of clinical symptoms and cumulative disease score by time of administration” value ([2]; feed started 2 weeks prior to transfer, at transfer, or at disease onset, FIG. 3) was “reduces the severity of clinical symptoms and the cumulative disease score regardless of the time of administration”, the “Time after feed administration until disease severity drops off” value (MOG-induced active EAE) was ≤ 2 days and the cumulative disease score (neurofilament H; [5]) was 14 and 103.25 and 83.75 and 105.25 and 28.25 and 83 and 0.5 and 87.25 and 28.75. The peak disease score (neurofilament H; [5]) was 2.25 (2×) and 3.5 (4×) and 2.75 and 2.5 and 0, the “average (relative amount of spinal cord neurofilament H)” value (neurofilament H; individual animals, spinal cords analyzed 90 days post transfer) was 0.9652 and 0.4487 and 0.7 and 0.3589 and 0.8499 and 0.3415 and 0.9171 and 0.9553 and 1.104 and the “Preservation of neurofilament H” value (neurofilament H; versus control feed, FIG. 5 and Table 3) was “greater preservation of neurofilament H”. For the same compound, the “Edema and inflammation by average T2 relaxation times” value ([3]; Tempol 2 weeks prior to T cell transfer, to levels observed in healthy animals, FIG. 7) was “limits (e.g., reduces) the edema and inflammation”, the “T2 relaxation times, spinal cord histogram” value ([3]; versus control-fed EAE animals) was “lower T2 relaxation times” and the “Inflammatory infiltrates at peak disease” value (inflammatory infiltrates) was “limits the inflammatory infiltrates”. The “Inflammatory infiltrates at peak disease” value (leukocytic infiltration; actively induced EAE, Table 4) was “limits the inflammatory infiltrates”, the “Microglial activation (upregulation of MHC class II expression)” value (leukocytic infiltration; compared to animals on control feed) was “reduces the degree of microglial activation” and the “% B cell” value (leukocytic infiltration; flow cytometry, peak disease) was 1.3% and 2.8%. For the same compound, the “% CD3” value (leukocytic infiltration; flow cytometry, peak disease) was 11.1% and 11.2%, the “% mac/gran” value (leukocytic infiltration; flow cytometry, peak disease) was 10.1% and 20.2% and the “% microglia” value (leukocytic infiltration; flow cytometry, peak disease) was 68.5% and 55.6%. The “% total CD45 hi” value (leukocytic infiltration; flow cytometry, peak disease) was 21.0% and 33.8%, the “CD4:CD8 ratio” value (leukocytic infiltration; flow cytometry, peak disease) was 1.7 and 1.5 and the “Cell #” value (leukocytic infiltration; flow cytometry, peak disease) was 1.0 ×10^6. For the same compound, the “Generation of myelin-specific T cells by proliferative responses” value (myelin-specific T cells) was “does not reduce the generation of myelin-specific T cells”.
